Results taken from patent US20240034733A1, “KRAS G12D INHIBITORS” (Mirati Therapeutics, Inc., priority 2020, published 2024).

Experiments:
[1] = system: KRas G12D-mediated phosphorylation of ERK; assay: Inhibition of KRas G12D-mediated phosphorylation of ERK in AGS cells; type: cell-based; conditions: Homo sapiens; AGS cells expressing G12D, 3 hours, phospho-ERK normalized to GAPDH
Method: AGS cells (ATCC CRL-1739) expressing G12D were grown in DMEM medium supplemented with 10% fetal bovine serum, 10 mM HEPES, and Penicillin/Streptomycin. Cells were plated in tissue culture treated 96 well plates at a density of 40,000 cells/well and allowed to attach for 12-14 hours. Diluted compounds were then added in a final concentration of 0.5% DMSO. After 3 hours, the medium was removed, 150 μl of 4.0% formaldehyde was added and the plates incubated at room temperature for 20 minutes. The plates were washed with PBS, and permeabilized with 150p of ice cold 100% methanol for 10 minutes. Non-specific antibody binding to the plates was blocked using 100 μL Licor blocking buffer (Li-Cor Biotechnology, Lincoln NE) for 1 hour at room temperature.
The amount of phosho-ERK was determined using an antibody specific for the phosphorylated form of ERK and compared to the amount of GAPDH. Primary antibodies used for the detection were added as follows: Phospho-ERK (Cell Signaling cs-9101) diluted 1:500 and GAPDH (Millipore MAB374) diluted 1:5000 in Licor block+0.05% Tween 20. The plates were incubated for 2 hours at room temperature. The plates were washed with PBS+0.05% Tween 20.
Secondary antibodies used to visualize primary antibodies were added as follows: Anti-rabbit-680 diluted 1:1000 and Anti-mouse-800 diluted 1:1000 both in Licor block+0.05% Tween20, and were incubated for 1 hour at room temperature. The plates were washed with PBS +0.05% Tween 20. A 100 μl aliquot of PBS was added to each well and the plates were read on a Li-Cor Odyssey CLX plate reader phospho-ERK (Thr202/Tyr204) signal was normalized to the GAPDH signal for each well and percent of DMSO control values were calculated. IC50 values were generated using a 4-parameter fit of the dose response curve

[2] = molecular target: T1, GDP-loaded recombinant human KRAS G12D (Homo sapiens, UniProt P01116, G12D); assay: KRas G12D Binding Assay (TR-FRET displacement of Cy5 labelled tracer); conditions: 60 minute incubation at 22° C.
T1 construct: corresponding to amino acids 1:169, produced at Array BioPharma; biotin (biotinylated); made in house
Method: This Example illustrates that exemplary compounds of the present invention bind to KRas G12D and are capable of displacing a labeled tracer ligand occupying the KRas G12D binding site.
The ability of a compound to bind to KRAS G12D was measured using a TR-FRET displacement assay. Biotinylated GDP-loaded recombinant human KRAS G12D (corresponding to amino acids 1:169, produced at Array BioPharma) was incubated with a custom-made Cy5 labelled tracer, europium labelled streptavidin and compound (2% DMSO final) in buffer (50 mM HEPES [pH 7.5], 5 mM MgCl2, 0.005% Tween-20 & 1 mM DTT). After a 60 minute incubation at 22° C., the reaction was measured using a PerkinElmer EnVision multimode plate reader via TR-FRET dual wavelength detection, and the percent of control (POC) calculated using a ratiometric emission factor. […] The POC values were fit to a 4-parameter logistic curve and the IC50 value was determined as the concentration where the curve crosses 50 POC.

T1 sequence (P01116 1-169 isoform P01116-2 G12D): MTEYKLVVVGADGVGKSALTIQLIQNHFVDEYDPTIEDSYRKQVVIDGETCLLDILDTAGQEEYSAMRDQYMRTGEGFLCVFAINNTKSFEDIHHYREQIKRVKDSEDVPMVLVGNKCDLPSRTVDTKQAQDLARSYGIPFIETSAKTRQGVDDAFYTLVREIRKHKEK

Structure (SMILES) | IC50 [1] [nM] | IC50 [2] [nM]
Oc1cc(-c2ccc3c(N4C[C@H]5CC[C@@H](C4)N5)nc(OCC45CCCN4CCC5)nc3c2F)c2ccccc2c1 [Example 3, 4-(4-((1R,5S)-3,8-diazabicyclo[3.2.1]octan-3-yl)-8-fluoro-2-((tetrahydro-1H-pyrrolizin-7a(5H)-yl)methoxy)quinazolin-7-yl)naphthalen-2-ol] | 95 | 0.5
N#Cc1ccccc1Oc1cc2c(N3CC4CCC(C3)N4)nc(OCC34CCCN3C[C@H](F)C4)nc2c(F)c1-c1cc(O)cc2ccccc12 (mixture of isomers) [Example 27, 2-((4-((1R,5S)-3,8-diazabicyclo[3.2.1]octan-3-yl)-8-fluoro-2-(((2R,7aS)-2-fluorotetrahydro-1H-pyrrolizin-7a(5H)-yl)methoxy)-7-(3-hydroxynaphthalen-1-yl)quinazolin-6-yl)oxy)benzonitrile] | 44 | 3.6
Oc1cc(-c2ccc3c(N4CC5CCC(C4)N5)nc(OCC45CCCN4C[C@H](F)C5)nc3c2F)c2c(Cl)cccc2c1 (mixture of isomers) [Example 5, 4-(4-((1R,5S)-3,8-diazabicyclo[3.2.1]octan-3-yl)-8-fluoro-2-(((2R,7aS)-2-fluorotetrahydro-1H-pyrrolizin-7a(5H)-yl)methoxy)quinazolin-7-yl)-5-chloronaphthalen-2-ol] | 42 | 1.4
CN1CCC[C@H]1COc1nc(N2CC3CCC(C2)N3)c2cc(Oc3cccnc3)c(-c3cc(O)cc4ccccc34)cc2n1 [Example 1] | 8390 | 7
Oc1cc(-c2cc3nc(OC[C@@]45CCCN4C[C@H](F)C5)nc(N4C[C@H]5CC[C@@H](C4)N5)c3cc2Oc2ccccc2Cl)c2c(Cl)cccc2c1 [Example 23, 4-(4-((1R,5S)-3,8-diazabicyclo[3.2.1]octan-3-yl)-6-(2-chlorophenoxy)-2-(((2R,7aS)-2-fluorotetrahydro-1H-pyrrolizin-7a(5H)-yl)methoxy)quinazolin-7-yl)-5-chloronaphthalen-2-ol] | 264 | 6.6
CN1CCC[C@H]1COc1nc(N2C[C@H]3CC[C@@H](C2)N3)c2cc(Oc3ccccc3C#N)c(-c3cc(O)cc4ccccc34)cc2n1 [Example 20, 2-((4-((1R,5S)-3,8-diazabicyclo[3.2.1]octan-3-yl)-7-(3-hydroxynaphthalen-1-yl)-2-(((S)-1-methylpyrrolidin-2-yl)methoxy)quinazolin-6-yl)oxy)benzonitrile] | 2160 | 1.6
Oc1cccc(F)c1-c1c(Cl)cc2c(N3CC4CCC(C3)N4)nc(OCC34CCCN3C[C@H](F)C4)nc2c1F (mixture of isomers) [Example 6, 2-(4-((1R,5S)-3,8-diazabicyclo[3.2.1]octan-3-yl)-6-chloro-8-fluoro-2-(((2R,7aS)-2-fluorotetrahydro-1H-pyrrolizin-7a(5H)-yl)methoxy)quinazolin-7-yl)-3-fluorophenol] | 1800 | 3.5
Oc1cc(-c2ccc3c(N4C[C@H]5CC[C@@H](C4)N5)nc(OCC45CCCN4CCC5)nc3c2F)c2c(Cl)cccc2c1 [Example 4, 4-(4-((1R,5S)-3,8-diazabicyclo[3.2.1]octan-3-yl)-8-fluoro-2-((tetrahydro-1H-pyrrolizin-7a(5H)-yl)methoxy)quinazolin-7-yl)-5-chloronaphthalen-2-ol] | 21 | 0.7
COc1ccc(Oc2cc3c(N4C[C@H]5CC[C@@H](C4)N5)nc(OC[C@@H]4CCCN4C)nc3cc2-c2cc(O)cc3ccccc23)c(Cl)c1 [Example 18, 4-(4-((1R,5S)-3,8-diazabicyclo[3.2.1]octan-3-yl)-6-(2-chloro-4-methoxyphenoxy)-2-(((S)-1-methylpyrrolidin-2-yl)methoxy)quinazolin-7-yl)naphthalen-2-ol] | 1370 | 11.5
N#Cc1ccccc1Oc1cc2c(N3CC4CCC(C3)N4)nc(OCC34CCCN3C[C@H](F)C4)nc2cc1-c1cc(O)cc2ccccc12 (mixture of isomers) [Example 22, 2-((4-((1R,5R)-3,8-diazabicyclo[3.2.1]octan-3-yl)-2-(((2R,7aS)-2-fluorotetrahydro-1H-pyrrolizin-7a(5H)-yl)methoxy)-7-(3-hydroxynaphthalen-1-yl)quinazolin-6-yl)oxy)benzonitrile] | 140 | 1.7
CN1CCC[C@H]1COc1nc(N2CCN(CCCl)CC2)c2ccc(-c3cc(O)cc4ccccc34)c(F)c2n1 [Example 9, (S)-4-(4-(4-(2-chloroethyl)piperazin-1-yl)-8-fluoro-2-((1-methylpyrrolidin-2-yl)methoxy)quinazolin-7-yl)naphthalen-2-ol] | 6790 | 187
Oc1cc(-c2ccc3c(N4CC5CCC(C4)N5)nc(OCC45CCCN4C[C@H](F)C5)nc3c2F)c2ccccc2c1 (mixture of isomers) [Example 28, 4-(4-((1R,5S)-3,8-diazabicyclo[3.2.1]octan-3-yl)-8-fluoro-2-(((2R,7aS)-2-fluorotetrahydro-1H-pyrrolizin-7a(5H)-yl)methoxy)quinazolin-7-yl)naphthalen-2-ol] | 171 | 0.6
CN1CCC[C@H]1COc1nc(N2C[C@H]3CC[C@@H](C2)N3)c2cc(Oc3c(Cl)cccc3C#N)c(-c3cc(O)cc4ccccc34)c(F)c2n1 [Example 25, 2-((4-((1R,5S)-3,8-diazabicyclo[3.2.1]octan-3-yl)-8-fluoro-7-(3-hydroxynaphthalen-1-yl)-2-(((S)-1-methylpyrrolidin-2-yl)methoxy)quinazolin-6-yl)oxy)-3-chlorobenzonitrile] | 784 | 5.3
N#Cc1ccccc1Oc1cc2c(N3C[C@H]4CC[C@@H](C3)N4)nc(OCC34CCCN3CCC4)nc2cc1-c1cc(O)cc2ccccc12 [Example 21, 2-((4-((1R,5S)-3,8-diazabicyclo[3.2.1]octan-3-yl)-7-(3-hydroxynaphthalen-1-yl)-2-((tetrahydro-1H-pyrrolizin-7a(5H)-yl)methoxy)quinazolin-6-yl)oxy)benzonitrile] | 1270 | 1
CN1CCC[C@H]1COc1nc(N2C[C@H]3CC[C@@H](C2)N3)c2cc(Oc3ccccc3C#N)c(-c3cc(O)cc4ccccc34)c(F)c2n1 [Example 24, 2-((4-((1R,5S)-3,8-diazabicyclo[3.2.1]octan-3-yl)-8-fluoro-7-(3-hydroxynaphthalen-1-yl)-2-(((S)-1-methylpyrrolidin-2-yl)methoxy)quinazolin-6-yl)oxy)benzonitrile] | 377 | 1.4
CN1CCC[C@H]1COc1nc(N2C[C@H]3CC[C@@H](C2)N3)c2cc(Oc3cccc(F)c3C#N)c(-c3cc(O)cc4ccccc34)c(F)c2n1 [Example 26, 2-((4-((1R,5S)-3,8-diazabicyclo[3.2.1]octan-3-yl)-8-fluoro-7-(3-hydroxynaphthalen-1-yl)-2-(((S)-1-methylpyrrolidin-2-yl)methoxy)quinazolin-6-yl)oxy)-6-fluorobenzonitrile] | 3540 | 7.4
CN1CCC[C@H]1COc1nc(N2C[C@H]3CC[C@@H](C2)N3)c2cc(Oc3ccccc3Cl)c(-c3cc(O)cc4ccccc34)cc2n1 [Example 19, 4-(4-((1R,5S)-3,8-diazabicyclo[3.2.1]octan-3-yl)-6-(2-chlorophenoxy)-2-(((S)-1-methylpyrrolidin-2-yl)methoxy)quinazolin-7-yl)naphthalen-2-ol] | 1700 | 1.3
COc1ccc(F)c(Oc2cc3c(N4C[C@H]5CC[C@@H](C4)N5)nc(OC[C@@H]4CCCN4C)nc3cc2-c2cc(O)cc3ccccc23)c1 [Example 17, 4-(4-((1R,5S)-3,8-diazabicyclo[3.2.1]octan-3-yl)-6-(2-fluoro-5-methoxyphenoxy)-2-(((S)-1-methylpyrrolidin-2-yl)methoxy)quinazolin-7-yl)naphthalen-2-ol bis(2,2,2-trifluoroacetate)] | 5560 | 8
